According to ChEMBL document CHEMBL1156829 (Proc Natl Acad Sci U S A, 2008):
pEC50: −log10 of the molar value. Values joined by “and” are separate entries in the source; they are usually repeats but may differ in a detail not shown here. Equal entries are not always repeated. Numbered stars: 1 amine (or outer) side, 2 acyl side, 3 side chain; on linkers, the order of the positions; unused ones are H or OH. Bridge positions count the residues as written; N and C are the ends. Square brackets hold non-standard residues; d marks the D form. Peptide text beside a SMILES is read from it. I, II: the chains in the order shown. Actinocin(1to9) = Cc1c2oc3c(C)ccc(C(=O)[*:2])c3nc-2c(C(=O)[*:1])c(N)c1=O; NMeV = CN[C@H](C(=O)O)C(C)C; Sar = CNCC(=O)O

How the values were obtained:
Plasmodium falciparum [1] = test: NOVARTIS: Inhibition of Plasmodium falciparum 3D7 (drug-susceptible) proliferation in erythrocyte-based infection assay; assay type: functional, organism-based
Plasmodium falciparum [2] = test: NOVARTIS: Inhibition of Plasmodium falciparum W2 (drug-resistant) proliferation in erythrocyte-based infection assay; assay type: functional, organism-based; details: read-out: EC50
Huh-7 = test: NOVARTIS: Cytotoxicity against human hepatocellular carcinoma cell line (Huh7); assay type: toxicity, cell-based

Row | Structure (SMILES) | pEC50 (Plasmodium falciparum [1]) | pEC50 (Plasmodium falciparum [1]; Plasmodium falciparum, 3D7) | pEC50 (Plasmodium falciparum [2]; Plasmodium falciparum, W2) | pEC50 (Plasmodium falciparum [2]) | CC50 (Huh-7; huh-7, read-out: CC50) | CC50 (Huh-7; huh-7)
1 | COc1cc(/C=C2/SC(=Nc3ccccc3)NC2=O)ccc1OCc1ccccc1Cl | 6.16 | 6.02 | 6.31 | 6.28 | > 100000 nM | 
2 | CCN1/C(=C/C=C/C2=[N+](C)c3ccc(C)cc3C2(C)C)C=Cc2ccccc21 | 6.06 and 6.80 |  |  | 6.07 and 6.74 | > 10000 nM and 4990 nM | 
3 | CCN1/C(=C/c2cccc[n+]2C)Sc2ccc(OC)cc21 |  | 6.68 |  | < 6.06 and 6.52 | > 100000 nM | 
4 | O=C(NCCc1ccccc1)C1CCC(Cn2c(=S)[nH]c3ccccc3c2=O)CC1 (stereo not drawn) |  | < 5.78 | 5.76 |  |  | No fit
5 | CCn1c(/C=C/N(C)c2ccccc2)[n+](CC)c2cc(Cl)ccc21 | 6.41 and 7.04 |  |  | 6.29 and 7.06 | 22600 nM and > 10000 nM | 
6 | C=CC[n+]1c(C=C2C=CC=CN2C)sc2ccccc21 |  | 6.31 |  | < 6.00 | > 10000 nM | 
7 | Cc1occc1C(=O)NN=C/C(Cl)=C/c1ccccc1 | 6.54 | 6.59 |  | 6.94 and 6.41 | > 10000 nM and 64300 nM | 
8 | CCN1/C(=C/c2[se]c3ccccc3[n+]2CC)C=Cc2cc(OC)ccc21 | 5.80 |  |  | 6.01 | 12700 nM | 
9 | C[n+]1c2ccccc2nc2ccc(NCCc3cnc[nH]3)cc21 |  | 6.86 | 6.39 |  |  | No fit
10 | CCN1/C(=C\C=C\c2n(CC)c3ccc(C#N)cc3[n+]2CC)Oc2ccc(-c3ccccc3)cc21 [listing 1 of 2 here] | 6.21 |  |  | 5.98 | > 10000 nM | 
11 | CC[n+]1c(/C=C2\Sc3cc(C)ccc3N2CCO)ccc2ccccc21 | 5.92 and 6.71 |  |  | 6.06 and 6.64 | > 10000 nM and 21300 nM | 
12 | CC[n+]1c(/C=C/N(C)c2ccccc2)n(-c2ccccc2)c2ccc(-c3nc4ccccc4s3)cc21 | < 6.03 and 6.34 |  |  | < 5.76 and 6.50 | > 10000 nM and 26900 nM | 
13 | CC[n+]1c(C=C2Sc3ccccc3N2CCO)sc2ccccc21 [listing 1 of 2 here] | 5.85 |  |  | < 5.83 | > 10000 nM | 
14 | C[n+]1ccc(C=Cc2ccc(O)cc2)cc1 [listing 1 of 2 here] | 5.84 |  |  | 6.23 | > 100000 nM | 
15 | C[n+]1ccccc1C=Cc1cc(Br)ccc1O [listing 1 of 2 here] | 6.33 |  |  | 6.51 | > 100000 nM | 
16 | CCN1C(=Cc2sc3ccc(OC)cc3[n+]2CC)C=Cc2ccccc21 | 7.69 |  |  | 6.68 | 24800 nM | 
17 | C[n+]1ccccc1C=Cc1cc(Br)ccc1O [listing 2 of 2 here] |  | 6.52 | 6.36 |  | > 10000 nM | 
18 | OC(CN1CCN(C/C=C/c2ccccc2)CC1)Cn1c2ccc(Cl)cc2c2cc(Cl)ccc21 (stereo not drawn) |  | 6.18 | 6.79 |  |  | No fit
19 | CCN(CC)c1ccc(C=Cc2cccc[n+]2CC)cc1 | 7.05 |  |  | 6.88 | 44900 nM | 
20 | COc1ccc2c(c1)N(C)/C(=C/c1cccc[n+]1C)S2 | 6.03 and 6.66 |  |  | < 6.10 and 6.52 | > 100000 nM | 
21 | CC[n+]1c(C=C2Sc3ccccc3N2CCO)sc2ccccc21 [listing 2 of 2 here] | 6.47 |  |  | 6.29 | > 100000 nM | 
22 | CCN1C(=Cc2sc3ccccc3[n+]2C)C=Cc2ccc(C)cc21 | 6.92 |  |  | 6.54 | 11400 nM | 

Row | Structure (SMILES) | pEC50 (Plasmodium falciparum [1]) | pEC50 (Plasmodium falciparum [1]; Plasmodium falciparum, 3D7) | pEC50 (Plasmodium falciparum [2]; Plasmodium falciparum, W2) | pEC50 (Plasmodium falciparum [2]) | CC50 (Huh-7; huh-7, read-out: CC50) | CC50 (Huh-7; huh-7)
23 | CCn1c(C=CN(C(C)=O)c2ccccc2)[n+](CC)c2cc(Cl)ccc21 [listing 1 of 2 here] | 5.59 |  |  | 5.80 | > 100000 nM | 
24 | C[n+]1c(C=CNc2ccccc2)n(-c2ccccc2)c2ccc(Cl)cc21 [listing 1 of 2 here] | 6.27 |  |  | 6.50 | 23800 nM | 
25 | C=CCN1C(=O)/C(=C2/Sc3ccc(OC)cc3N2C)SC1=Nc1ccccc1-c1ccccc1 | 5.67 | 5.93 | 6.31 | 6.08 | > 100000 nM | 
26 | O=C1NC(=Nc2ccccc2)/C(=C/c2ccc(O)cc2)S1 | 6.09 | < 5.90 | < 5.96 | 5.67 | > 10000 nM and 21000 nM | 
27 | CCN1/C(=C/C=C/c2sc3ccccc3[n+]2CC)Sc2ccccc21 | 6.59 |  |  | 6.78 | 9030 nM | 
28 | O=C(Nc1ccc(-c2nc3cc(NC(=O)c4cccc([N+](=O)[O-])c4)ccc3[nH]2)cc1)c1cccc([N+](=O)[O-])c1 | 6.49 | 6.31 |  | 6.20 and 6.61 | 1670 nM and 667 nM | 
29 | CN(C)c1ccc(C=CC=Cc2cccc[n+]2C)cc1 |  | 6.97 | > 8.07 |  | > 10000 nM | 
30 | C[n+]1c(C=CNc2ccccc2)n(-c2ccccc2)c2ccc(Cl)cc21 [listing 2 of 2 here] | 6.74 |  |  | > 7.84 | > 10000 nM | 
31 | CCN1/C(=C/c2cccc[n+]2C)C=Cc2ccccc21 | 6.40 | 6.18 | 6.28 | 6.24 | > 64500 nM | 
32 | Cc1ccc(-n2c(C)cc(/C=C3\SC(=Nc4ccc(Cl)cc4)NC3=O)c2C)cc1 | 6.29 and 6.71 |  | 6.21 | 6.20 | > 100000 nM | 
33 | CC[n+]1c(/C=C/N2CCCc3ccccc32)ccc2ccccc21 |  | 7.12 | 6.84 |  | 2340 nM | 
34 | CCOc1ccc2nccc([C@@H](O)[C@@H]3C[C@@H]4CCN3C[C@@H]4CC)c2c1 [ETHYLHYDROCUPREINE] |  | 7.50 |  | 7.59 | 53800 nM | 
35 | Cc1c2oc3c(C)ccc(C(=O)N[C@@H]4C(=O)N[C@H](C(C)C)C(=O)N5CCC[C@H]5C(=O)N(C)CC(=O)N(C)[C@@H](C(C)C)C(=O)O[C@@H]4C)c3nc-2c(C(=O)N[C@@H]2C(=O)N[C@H](C(C)C)C(=O)N3CCC[C@H]3C(=O)N(C)CC(=O)N(C)[C@@H](C(C)C)C(=O)O[C@@H]2C)c(N)c1=O [DACTINOMYCIN] (I: T[dV]P[Sar][NMeV] / II: T[dV]P[Sar][NMeV]; ester I:1-I:C, II:1-II:C; linker I:N-II:N via Actinocin(1to9)) | 6.49 and 6.09 |  | 6.67 | 6.40 | 4180 nM and > 10000 nM | 
36 | CCN1/C(=C\C=C\c2n(CC)c3ccc(C#N)cc3[n+]2CC)Oc2ccc(-c3ccccc3)cc21 [listing 2 of 2 here] | 5.41 |  |  | 5.22 | > 100000 nM | 
37 | CC[n+]1c(C=CN(C)c2ccccc2)sc2ccc(Cl)cc21 | 6.65 | 6.81 | 6.45 | 6.44 | > 10000 nM and 23000 nM | 
38 | Cc1[nH]c2ccccc2c1/C=C/c1cc[n+](C)cc1 | 6.76 |  |  | 6.67 | > 100000 nM | 
39 | Cc1cccc(N=C2NC(=O)/C(=C\c3ccc(N(C)C)cc3)S2)c1 | 5.93 | 6.11 |  | 5.78 and 6.29 | > 100000 nM | 
40 | CCN1/C(=C/c2ccc3ccccc3[n+]2CC)Sc2cc(NC(C)=O)ccc21 [listing 1 of 2 here] | 6.95 |  |  | 7.15 | > 100000 nM | 
41 | Cc1occc1C(=O)NN=C/C(Br)=C/c1ccccc1 | 5.86 and 6.69 |  | 6.23 | 6.30 | > 10000 nM and 47100 nM | 
42 | CCN1/C(=C/c2cccc[n+]2C)Sc2ccccc21 | 5.37 and 6.36 |  |  | 5.97 and 5.57 | > 100000 nM | 
43 | COc1cc(/C=C2/SC(=Nc3ccccc3)NC2=O)ccc1OCc1ccccc1F | < 5.96 and 5.44 |  |  | < 4.90 | > 100000 nM | 
44 | CC[n+]1c(C=CN(C)C)sc2ccccc21 [listing 1 of 2 here] | 6.35 |  |  | 6.34 | > 10000 nM | 

Row | Structure (SMILES) | pEC50 (Plasmodium falciparum [1]) | pEC50 (Plasmodium falciparum [1]; Plasmodium falciparum, 3D7) | pEC50 (Plasmodium falciparum [2]; Plasmodium falciparum, W2) | pEC50 (Plasmodium falciparum [2]) | CC50 (Huh-7; huh-7, read-out: CC50) | CC50 (Huh-7; huh-7)
45 | CCN1C(=Cc2sc3cc(NC(C)=O)ccc3[n+]2CC)C=Cc2cc(C)ccc21 | 5.80 |  | 6.25 |  | > 10000 nM | 
46 | C[n+]1ccc(/C=C/c2c[nH]c3ccccc23)cc1 | 6.87 and 6.33 |  | 7.20 | 7.02 | > 100000 nM | 
47 | CCn1c(C=CN(C(C)=O)c2ccccc2)[n+](CC)c2cc(Cl)ccc21 [listing 2 of 2 here] |  | < 5.78 | < 5.97 |  | > 10000 nM | 
48 | CC1=C(C=CC(C)C=NNC(=O)c2ccncc2)C(C)(C)CCC1 (stereo not drawn) | 5.85 | 6.05 | 6.06 | 5.95 | > 100000 nM | 
49 | CCN1/C(=C/c2ccc3cc(OC)ccc3[n+]2CC)Sc2ccc(NC(C)=O)cc21 | 7.51 and 6.95 |  | 7.08 | 6.93 | > 52000 nM | 
50 | CN(C)c1ccc(C=CC=Cc2cccc[n+]2C)cc1.[O-][Cl+3]([O-])([O-])[O-] |  | 6.55 | 6.75 |  | > 100000 nM | 
51 | Cc1cc(=O)n(-c2nc(-c3ccccc3O)nc3ccccc23)[nH]1 |  | 6.08 | 6.12 |  |  | No fit
52 | CC[n+]1c(C=CN(C)c2ccccc2)sc2ccc(OC)cc21 |  | 6.04 | 6.40 |  | > 10000 nM | 
53 | COc1ccc(/C=C2/SC(=Nc3ccccc3)NC2=O)c(OC)c1 | 6.18 | 6.27 | 6.37 | 6.60 | > 100000 nM | 
54 | Cc1ccc(N=C2NC(=O)/C(=C\c3ccc(N(C)C)cc3)S2)cc1 | 6.21 and 5.83 |  |  | 6.31 and 5.90 | > 100000 nM | 
55 | C[n+]1ccc(C=Cc2ccc(O)cc2)cc1 [listing 2 of 2 here] | 6.52 |  |  | 6.76 | > 10000 nM | 
56 | CN(C)c1ccc(C=CC=Cc2cc[n+](C)cc2)cc1 |  | 6.19 | 6.30 |  | > 10000 nM | 
57 | CCN1C(=Cc2sc3ccccc3[n+]2C)C=Cc2cccc(C)c21 | 7.18 |  |  | 6.64 | 27400 nM | 
58 | CCN1/C(=C/c2cccc[n+]2C)C=Cc2ccc(C)cc21 | 6.65 and 6.31 |  | 6.48 | 6.35 | > 49800 nM | 
59 | CC(C)c1ccc(/C=C2/SC(=Nc3ccccc3)NC2=O)cc1 | 6.00 and 6.32 |  | 5.95 | 6.00 | > 100000 nM | 
60 | CCN1/C(=C/c2ccc3ccccc3[n+]2CC)Sc2cc(NC(C)=O)ccc21 [listing 2 of 2 here] | 6.03 |  |  | 6.15 | > 10000 nM | 
61 | CC[n+]1c(C=CN(C)C)sc2ccccc21 [listing 2 of 2 here] |  | 6.34 |  | 5.87 | 27100 nM | 
62 | CCN1/C(=C/c2ccc3ccccc3[n+]2CC)C=Cc2ccccc21 | 6.21 and 7.18 |  |  | 6.26 and 6.72 | > 10000 nM and 36800 nM | 
63 | CC[n+]1c(C=CN(C)c2ccccc2)oc(-c2ccccc2)c1-c1ccccc1 | 6.21 and 6.71 |  |  | 6.39 and 6.98 | > 10000 nM and 2740 nM | 
64 | COc1ccc2c(ccc(/C=C3\C=CC=CN3C)[n+]2C)c1 | 6.24 | 6.50 | 6.05 | 6.28 | > 100000 nM | 
